In experiment [1] the test system is Staphylococcus aureus. Description: Antibacterial activity against Staphylococcus aureus 25923 after 24 hrs by agar diffusion method. Type of experiment: functional. To be noted: Staphylococcus aureus, 25923, 24 h.
For experiment [2], the system named is Streptococcus sobrinus. As to the kind of experiment: Antibacterial activity against Streptococcus sobrinus 6715 assessed as total biofilm adherence inhibition after 18 hrs by microtechnique. Type of experiment: functional.
The test system of experiment [3] is Streptococcus gordonii. As to the kind of experiment: Antibacterial activity against Streptococcus gordonii 10558 after 24 hrs by agar diffusion method. Conditions: Streptococcus gordonii, 10558, 24 h. Type of experiment: functional.
Experiment [4] concerns Streptococcus sobrinus. Description: Antibacterial activity against Streptococcus sobrinus 6715 after 24 hrs by agar diffusion method. Type of experiment: functional. To be noted: Streptococcus sobrinus, 6715, 24 h.
The test system of experiment [5] is HeLa. As to the kind of experiment: Cytotoxicity against human HeLa cells after 24 to 48 hrs by MTT assay. Type of experiment: functional, cell-based.
The subject of experiment [6] is Streptococcus mutans. As to the kind of experiment: Antibacterial activity against Streptococcus mutans UA159 after 24 hrs by agar diffusion method. Type of experiment: functional. To be noted: UA159, 24 h.
Experiment [7] deals with Actinomyces naeslundii. Description: Antimicrobial activity against Actinomyces naeslundii 12104 after 24 hrs by agar diffusion method. Type of experiment: functional. To be noted: Actinomyces naeslundii, 12104, 24 h.
Experiment [8] deals with Streptococcus mutans. As to the kind of experiment: Antibacterial activity against Streptococcus mutans UA159 assessed as total biofilm adherence inhibition after 18 hrs by microtechnique. Type of experiment: functional.
Experiment [9] relates to Streptococcus oralis. Description: Antibacterial activity against Streptococcus oralis PB182 after 24 hrs by agar diffusion method. Type of experiment: functional. Conditions: PB182, 24 h.

≈ marks a conversion by molar mass, not a printed value.

Turning to `CC(C)=CC[C@H]1C[C@@]2(CC=C(C)C)C(=O)[C@](C(=O)c3ccccc3)(C(=O)C3=C2O[C@H](C(C)(C)O)C3)C1(C)C` [HYPERIBONE A], the MBC in [1] was 5.85 µg/mL (≈ 11.3 µM); in [3], 26 µg/mL (≈ 50.1 µM); in experiment [4], 53 µg/mL (≈ 102 µM); in experiment [6], 53 µg/mL (≈ 102 µM); in experiment [7], 6.6 µg/mL (≈ 12.7 µM); in experiment [9], 26 µg/mL (≈ 50.1 µM). Besides, the MIC turned out to be 0.73 µg/mL (≈ 1.41 µM) in experiment [1]; 1.65 µg/mL (≈ 3.18 µM) in [3]; 3.3 µg/mL (≈ 6.36 µM) in [4]; 3.3 µg/mL (≈ 6.36 µM) in experiment [6]; 1.65 µg/mL (≈ 3.18 µM) in [7]; 1.65 µg/mL (≈ 3.18 µM) in experiment [9]. The Activity in experiment [2] and in [8] was 1.65 µg/mL in each case. Moreover, it took 176 nM to reach half-maximal inhibition in [5] (IC50).

`CC(C)=CCC1=C(O)[C@@]2(C(=O)c3ccccc3)C(=O)[C@](CC=C(C)C)(C[C@H](CC=C(C)C)C2(C)C)C1=O` came in with an IC50 in experiment [5] of 3300 nM.

Values taken from ChEMBL document CHEMBL1155244, “Identification of a bioactive compound isolated from Brazilian propolis type 6” (Bioorg Med Chem, 2009).
